Like-named read-outs stand apart in the source and are kept apart here.
Tests used:
GID4 [1] = biological target: T1, GID4 (Homo sapiens, UniProt Q8IVV7); experiment: biochemical; design: SPR binding affinity to immobilized biotinylated GID4; details: read-out: KD by SPR
T1 construct: residues 116-300; N-terminal Strep-SUMO-3C-6xHis-Avi, HRV-3C cleaved, Avi-tag kept and biotinylated; E. coli BL21(DE3)
T1 sequence (Q8IVV7 116-300): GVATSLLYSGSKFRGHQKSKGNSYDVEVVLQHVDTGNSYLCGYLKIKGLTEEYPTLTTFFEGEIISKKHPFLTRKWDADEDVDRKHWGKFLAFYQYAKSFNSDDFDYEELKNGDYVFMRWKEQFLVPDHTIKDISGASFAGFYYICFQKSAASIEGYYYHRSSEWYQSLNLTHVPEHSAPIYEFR
Method: (§1) Following the identification of the binding pocket and the key interactions of the initial fragment, we initiated the synthesis of a series of analogs to explore the structure-activity relationship (SAR) (Table 1). The resulting changes in affinity were evaluated using surface plasmon resonance (SPR) and differential scanning fluorimetry (DSF). […] In the next step, we replaced the 3-Cl group to find an additional potency boost. […] All constructs were verified by sequencing. Protein was expressed by transforming plasmid into chemically competent recombinant E. coli BL21(DE3) strain. E coli was cultured in LB medium supplemented with 50 µg/mL kanamycin in shaker flasks at 37 °C and 160 rpm. Once an optical density at 600 nm (OD600) reached 0.5-0.6, protein expression was induced by an addition of 0.1 mM IPTG.

GID4 [2] = biological target: T2, GID4 (Homo sapiens, UniProt Q8IVV7); design: Differential scanning fluorimetry, thermal shift of GID4; details: binder
T2 construct: residues 116-300, N-terminal 6xHis-SUMO tag (DSF construct)
T2 sequence (Q8IVV7 1-300): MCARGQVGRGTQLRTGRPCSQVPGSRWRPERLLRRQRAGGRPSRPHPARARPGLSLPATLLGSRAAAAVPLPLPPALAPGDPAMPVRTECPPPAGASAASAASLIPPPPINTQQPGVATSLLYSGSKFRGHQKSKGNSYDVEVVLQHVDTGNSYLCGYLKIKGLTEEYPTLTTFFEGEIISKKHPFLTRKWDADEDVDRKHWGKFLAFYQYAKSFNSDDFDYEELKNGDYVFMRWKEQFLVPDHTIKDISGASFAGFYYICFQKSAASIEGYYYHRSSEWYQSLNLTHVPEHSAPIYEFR
Method: Following the identification of the binding pocket and the key interactions of the initial fragment, we initiated the synthesis of a series of analogs to explore the structure-activity relationship (SAR) (Table 1). The resulting changes in affinity were evaluated using surface plasmon resonance (SPR) and differential scanning fluorimetry (DSF). […] In the next step, we replaced the 3-Cl group to find an additional potency boost. […] MATERIALS AND METHODS Recombinant Protein Expression and Purification GID4 Expression and Purification Human Glucose-induced degradation protein 4 homolog (Gid4, UniProt ID: Q8IVV7) residues 124-289 were cloned into a vector to generate a N-terminal 6xHis-SUMO-tag for crystallography studies, residues 116-300 were cloned into a vector to generate a N-terminal 6xHis-SUMO-tag for DSF studies and residues 116-300 were cloned into a vector to generate a N-terminal Strep-SUMO-3C-6xHis-AVI-tag for SPR experiments. All constructs were verified by sequencing. Protein was expressed by transforming plasmid into chemically competent recombinant E. coli BL21(DE3) strain. E coli was cultured in LB medium supplemented with 50 µg/mL kanamycin in shaker flasks at 37 °C and 160 rpm. Once an optical density at 600 nm (OD600) reached 0.5-0.6, protein expression was induced by an addition of 0.1 mM IPTG.

GID4 [3] = biological target: T1, GID4; experiment: SPR; type: binding
HiBiT-GID4(FL) = biological target: T3, HiBiT-GID4(FL) (Homo sapiens, UniProt Q8IVV7); design: species or system HEK293T; HiBiT cellular thermal shift of full-length GID4, luminescence, delta Tagg; details: binder
T3 construct: full length, N-terminal HiBiT tag, stably expressed in HEK293T (piggyBac)
T3 sequence (Q8IVV7 1-300): T2 sequence (Q8IVV7 1-300)
Excerpt: (§2) Following the confirmation of cellular target engagement, we assessed the ability of GID4 to induce targeted protein degradation by synthesizing a panel of GID4-BRD4 bifunctional compounds. We utilized our lead ligand 14 together with a well-known BRD4 ligand JQ1, exploring a range of standard linkers with varying exit vectors and lengths, including rigid alkyl, and flexible PEG (2x, or 4xPEG) (Figure 6A). […] We assessed binary interactions with GID4 and BRD4, as well as the ternary complex formation by SPR and HTRF (Figure 6 and Table S2). All bifunctional compounds, except for 26, retained high affinity for BRD4 (K ^BRD4 =0.006-0.02 µM). […] Crucially, all degraders equipped with the active JQ1 warhead mediated ternary complex formation between GID4 and BRD4 (Figure 6 B-C). We further utilized NanoBRET assay to confirm BRD4 engagement, in both intact and lysed HEK293T cells (Table S2). […] This discrepancy indicates potential permeability limitations or active efflux of the bifunctional molecules. Despite successful BRD4 engagement, none of the degraders stabilized GID4 in the intracellular engagement assay, resulting in negative ΔTagg values (Table S2). This was consistent across all compounds, independent of linker length, composition, or exit vector. Consequently, no degradation of BRD4 was observed (Figures S11–S13), highlighting that while ternary complex formation is achievable in vitro, the physicochemical properties of these GID4-based PROTACs currently limit their intracellular efficacy.

BRD4 = BRD4 (Homo sapiens, UniProt O60885); design: SPR binary binding affinity to BRD4; details: binder
Excerpt: as §2

GID4 [4] = biological target: T1, GID4; design: SPR binding affinity to immobilized biotinylated GID4; details: binder
Method: as §1

GID4 [5] = biological target: T1, GID4; experiment: SPR, steady-state affinity; type: binding
Excerpt: SPR, steady-state affinity on GID4

Compound | Kd (GID4 [1]) [nM] | ΔTm by DSF (°C) (GID4 [2]) | other results
Cc1oc(-c2cc(F)cc(/N=C(/N)N3CCC(C)(C)CC3)c2)cc1C(=O)N1CCN(C)CC1 [compound 15, 15] | 120 | 5.9 ± 0.08 °C | 
CC(=O)N1CCN(CC2CCCN(C(=O)c3cc(-c4cc(F)cc(N=C(N)N5CCC(C)(C)CC5)c4)oc3C)C2)CC1 (racemic) [compound 23] | 90 | 6.4 ± 0.02 °C | 
Cc1oc(-c2cc(F)cc(/N=C(/N)N3CCC(C)(C)CC3)c2)cc1C(=O)N1CCOCC1 [compound 16, 16] | 90 | 6.2 ± 0.01 °C | 
COC1CCN(C(=O)c2cc(-c3cc(F)cc(N=C(N)N4CCC(C)(C)CC4)c3)oc2C)CC1 [compound 18] | 130 | 7.1 ± 0,04 °C | 
Cc1oc(-c2cc(F)cc(/N=C(/N)N3CCC(C)(C)CC3)c2)cc1C(=O)N1CCCC(CN2CCN(C(=O)C[C@@H]3N=C(c4ccc(Cl)cc4)c4c(sc(C)c4C)-n4c(C)nnc43)CC2)C1 (stereo partly shown) [compound 25, 25] |  |  | GID4 intracellular target engagement ΔTagg [ºC] (HiBiT-GID4(FL)): -1.4 ± 0.3 °C; Kd (BRD4): 20 nM; Kd (GID4 [4]): 500 nM
CC(=O)N1CCN(CC2CCN(C(=O)c3cc(-c4cc(F)cc(N=C(N)N5CCC(C)(C)CC5)c4)oc3C)CC2)CC1 [compound 22] | 140 | 5.9 ± 0.04 °C | 
Cc1oc(-c2cc(F)cc(/N=C(/N)N3CCC(C)(C)CC3)c2)cc1C(=O)N1CCCC(OCCOCCOCCOCCOCCNC(=O)C[C@@H]2N=C(c3ccc(Cl)cc3)c3c(sc(C)c3C)-n3c(C)nnc32)C1 (stereo partly shown) [compound 30, 30] |  |  | GID4 intracellular target engagement ΔTagg [ºC] (HiBiT-GID4(FL)): -0.3 ± 1.0 °C; Kd (BRD4): 6 nM
Cc1ccc(-c2cc(F)cc(N=C(N)N3CCC(C)CC3)c2)o1 [compound 9] |  |  | Kd (GID4 [3]; PBS pH 7.4, 0.05% P-20, 1 mM DTT, 1% DMSO, biotinylated GID4 immobilised on SA chip, read-out: KD): 730 nM
Cc1oc(-c2cc(F)cc(/N=C(/N)N3CCC(C)(C)CC3)c2)cc1C(=O)N1CCC(CN2CCN(C(=O)C[C@H]3N=C(c4ccc(Cl)cc4)c4c(sc(C)c4C)-n4c(C)nnc43)CC2)CC1 [compound 26] |  |  | Kd (GID4 [3]; PBS pH 7.4, 0.05% P-20, 1 mM DTT, 1% DMSO, biotinylated GID4 immobilised on SA chip, read-out: KD^GID4): 630 nM; GID4 intracellular target engagement ΔTagg [ºC] (HiBiT-GID4(FL)): -2 ± 0.6 °C
Cc1oc(-c2cc(F)cc(/N=C(/N)N3CCC(C)(C)CC3)c2)cc1C(=O)N1CCC(OCCOCCOCCOCCOCCNC(=O)C[C@@H]2N=C(c3ccc(Cl)cc3)c3c(sc(C)c3C)-n3c(C)nnc32)CC1 [compound 29, 29] |  |  | GID4 intracellular target engagement ΔTagg [ºC] (HiBiT-GID4(FL)): 0.1 ± 0.4 °C; Kd (BRD4): 6 nM
Cc1oc(-c2cc(F)cc(/N=C(/N)N3CCC(C)(C)CC3)c2)cc1C(=O)N1CCCC(OCCOCCOCCNC(=O)C[C@@H]2N=C(c3ccc(Cl)cc3)c3c(sc(C)c3C)-n3c(C)nnc32)C1 (stereo partly shown) [compound 28, 28] |  |  | GID4 intracellular target engagement ΔTagg [ºC] (HiBiT-GID4(FL)): -2.6 ± 3.7 °C; Kd (BRD4): 16 nM
COCCOCCC1CCCN(C(=O)c2cc(-c3cc(F)cc(N=C(N)N4CCC(C)(C)CC4)c3)oc2C)C1 (racemic) [compound 21] | 50 | 6.8 ± 0.04 °C | 
Cc1oc(-c2cc(F)cc(/N=C(/N)N3CCC(C)(C)CC3)c2)cc1C(=O)N1CCC(CN2CCN(C(=O)C[C@@H]3N=C(c4ccc(Cl)cc4)c4c(sc(C)c4C)-n4c(C)nnc43)CC2)CC1 [compound 24, 24] |  |  | GID4 intracellular target engagement ΔTagg [ºC] (HiBiT-GID4(FL)): -1.7 ± 1.2 °C; Kd (BRD4): 13 nM; Kd (GID4 [4]): 320 nM
COCCOCCC1CCN(C(=O)c2cc(-c3cc(F)cc(N=C(N)N4CCC(C)(C)CC4)c3)oc2C)CC1 [compound 20] | 50 | 6.5 ± 0,03 °C | 

Now from value to compound, other results behind:

Kd (GID4 [1]) [nM] | ΔTm by DSF (°C) (GID4 [2]) | Compound | other results
 | 3.2 ± 0.08 °C | CC1CCN(C(N)=Nc2cc(F)cc(Cl)c2)CC1 [compound 6] | Kd (GID4 [3]; read-out: KD): 2940 nM
 | 3.3 ± 0.03 °C | CC1CCCN(C(N)=Nc2cc(F)cc(Cl)c2)C1 (stereo not shown) [compound 7] | Kd (GID4 [3]; read-out: KD): 4120 nM
60 | 6.9 ± 0.18 °C | Cc1oc(-c2cc(F)cc(N=C(N)N3CCC(C)(C)CC3)c2)cc1C(=O)N(C)C [compound 12] | 
 | 2.8 ± 0.08 °C | NC(=Nc1cc(F)cc(Cl)c1)N1CCCCC1 [compound 4] | Kd (GID4 [3]; read-out: KD): 8160 nM
1430 | 3.9 ± 0.03 °C | Cc1oc(-c2cc(F)cc(N=C(N)N3CCC(C)(C)CC3)c2)cc1C(=O)Nc1ccccc1 [compound 13] | 
 | 3.3 ± 0.06 °C | NC(=Nc1cccc(F)c1)N1CCCCC1 [compound 3] | Kd (GID4 [3]; read-out: KD): 12000 nM
 | 3.3 ± 0.04 °C | CC1CCCCN1C(N)=Nc1cc(F)cc(Cl)c1 (stereo not shown) [compound 5] | Kd (GID4 [3]; read-out: KD): 2870 nM
310 | 4.8 ± 0.07 °C | CNC(=O)c1cc(-c2cc(F)cc(N=C(N)N3CCC(C)(C)CC3)c2)oc1C [compound 11] | 
 | 1.6 ± 0.13 °C | NC(=Nc1cccc(Cl)c1)N1CCCCC1 [compound 2] | Kd (GID4 [3]; read-out: KD): 23000 nM
 | 1.0 ± 0.06 °C | NC(=Nc1ccccc1)N1CCCCC1 [compound 1] | Kd (GID4 [5]): 78800 nM
 | 4.3 ± 0.05 °C | Cc1ccc(-c2cc(F)cc(N=C(N)N3CCCCC3C)c2)o1 (stereo not shown) [compound 8] | Kd (GID4 [3]; read-out: KD): 940 nM
50 | 7.1 ± 0.01 °C | COC1CCCN(C(=O)c2cc(-c3cc(F)cc(N=C(N)N4CCC(C)(C)CC4)c3)oc2C)C1 (racemic) [compound 19] | 
 | 7.7 ± 0.05 °C | Cc1oc(-c2cc(F)cc(N=C(N)N3CCC(C)(C)CC3)c2)cc1C(=O)N1CCCCC1 [compound 14] | Kd (GID4 [3]; read-out: KD^GID4): 30 nM

— article doi:10.1101/2025.07.01.662521v3, “Ligand-induced Conformational Plasticity of the CTLH E3 Ligase Receptor GID4” (biorxiv, 2026)
